Measurements from patent US11226337B2, “Chemoproteomic profiling of protein electrophilic and oxidative post-translational modifications” (Zenagem, LLC, priority 2017, dated 2022).

Assays:
Experiment in all cases: SILAC RP-ABPP
Assay type in all cases: cell-based
[1] = molecular target: T1, ACOX3 Peroxisomal acylcoenzyme A oxidase 3 (O15254) (Homo sapiens, UniProt O15254); conditions: SILAC H/L, MDA-MB-231
T1 construct: endogenous in cells; host or cells: HEK293T or MDA-MB-231
In short: (§1)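 Heavy SILAC HEK293T or MDA-MB-231 cells were treated with a clickable hydrazine probe; light cells received the non-clickable analogue (enrichment) or the probe plus 10-fold excess non-clickable competitor (competition). Mixed proteomes underwent CuAAC with 100 μM biotin-azide for 1 h. Heavy:light ratios were taken as median peptide ratios (≥3 peptides) averaged over ≥3 replicates.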

[2] = molecular target: T2, BCAT1 Branchedchainaminoacid (P54687) (Homo sapiens, UniProt P54687); conditions: SILAC H/L, MDA-MB-231
T2 construct: endogenous in cells; host or cells: HEK293T or MDA-MB-231
In short: as §1

[3] = molecular target: T3, CMBL Carboxymethylenebutenolidase homolog (Q96DG6) (Homo sapiens, UniProt Q96DG6); conditions: SILAC H/L, HEK293T
T3 construct: In Situ Labelling of Cells with Hydrazine Probes for MS Experiments; endogenous in cells; host or cells: HEK293T and/or MDA-MB-231
In short: as §1

[4] = molecular target: T4, CPD Carboxypeptidase D (O75976) (Homo sapiens, UniProt O75976); conditions: SILAC H/L, MDA-MB-231
T4 construct: In Situ Labelling of Cells with Hydrazine Probes for MS Experiments; endogenous in cells; host or cells: HEK293T and/or MDA-MB-231
In short: as §1

[5] = molecular target: T5, FADS2 Fatty acid desaturase 2 (O95864) (Homo sapiens, UniProt O95864); conditions: SILAC H/L, HEK293T
T5 construct: In Situ Labelling of Cells with Hydrazine Probes for MS Experiments; endogenous in cells; host or cells: HEK293T and/or MDA-MB-231
In short: as §1

[6] = molecular target: T6, KDM1A Lysinespecific histone demethylase 1A (O60341) (Homo sapiens, UniProt O60341); conditions: SILAC H/L, HEK293T
T6 construct: In Situ Labelling of Cells with Hydrazine Probes for MS Experiments; endogenous in cells; host or cells: HEK293T and/or MDA-MB-231
In short: as §1

[7] = molecular target: T7, KDM1B Lysinespecific histone demethylase 1B (Q8NB78) (Homo sapiens, UniProt Q8NB78); conditions: SILAC H/L, HEK293T
T7 construct: In Situ Labelling of Cells with Hydrazine Probes for MS Experiments; endogenous in cells; host or cells: HEK293T and/or MDA-MB-231
In short: as §1

NEU1 Sialidase1 (Q99519) = molecular target: T8, NEU1 Sialidase1 (Q99519) (Homo sapiens, UniProt Q99519); conditions: SILAC H/L, MDA-MB-231
T8 construct: endogenous in cells; host or cells: HEK293T or MDA-MB-231
In short: as §1

[8] = molecular target: T9, PHYHD1 PhytanoylCoA dioxygenase (Q5SRE7) (Homo sapiens, UniProt Q5SRE7); conditions: SILAC H/L, MDA-MB-231
T9 construct: In Situ Labelling of Cells with Hydrazine Probes for MS Experiments; endogenous in cells; host or cells: HEK293T and/or MDA-MB-231
In short: as §1

[9] = molecular target: T10, PLOD2 Procollagenlysine, 2oxoglutarate (O00469) (Homo sapiens, UniProt O00469); conditions: SILAC H/L, MDA-MB-231
T10 construct: endogenous in cells; host or cells: HEK293T or MDA-MB-231
In short: as §1

[10] = molecular target: T11, PXDN Peroxidasin homolog (Q92626) (Homo sapiens, UniProt Q92626); conditions: SILAC H/L, MDA-MB-231
T11 construct: In Situ Labelling of Cells with Hydrazine Probes for MS Experiments; endogenous in cells; host or cells: HEK293T and/or MDA-MB-231
In short: as §1

[11] = molecular target: T12, RRM2 Ribonucleosidediphosphate reductase (P31350) (Homo sapiens, UniProt P31350); conditions: SILAC H/L, HEK293T
T12 construct: In Situ Labelling of Cells with Hydrazine Probes for MS Experiments; endogenous in cells; host or cells: HEK293T and/or MDA-MB-231
In short: as §1

[12] = molecular target: T13, SELENBP1 Seleniumbinding protein 1 (Q13228) (Homo sapiens, UniProt Q13228); conditions: SILAC H/L, MDA-MB-231
T13 construct: endogenous in cells; host or cells: HEK293T or MDA-MB-231
In short: as §1

[13] = molecular target: T14, aminotransferase, mitoch (O15382) (Homo sapiens, UniProt O15382); conditions: SILAC H/L, MDA-MB-231
T14 construct: endogenous in cells; host or cells: HEK293T or MDA-MB-231
In short: as §1

T7 sequence (Q8NB78 whole entry): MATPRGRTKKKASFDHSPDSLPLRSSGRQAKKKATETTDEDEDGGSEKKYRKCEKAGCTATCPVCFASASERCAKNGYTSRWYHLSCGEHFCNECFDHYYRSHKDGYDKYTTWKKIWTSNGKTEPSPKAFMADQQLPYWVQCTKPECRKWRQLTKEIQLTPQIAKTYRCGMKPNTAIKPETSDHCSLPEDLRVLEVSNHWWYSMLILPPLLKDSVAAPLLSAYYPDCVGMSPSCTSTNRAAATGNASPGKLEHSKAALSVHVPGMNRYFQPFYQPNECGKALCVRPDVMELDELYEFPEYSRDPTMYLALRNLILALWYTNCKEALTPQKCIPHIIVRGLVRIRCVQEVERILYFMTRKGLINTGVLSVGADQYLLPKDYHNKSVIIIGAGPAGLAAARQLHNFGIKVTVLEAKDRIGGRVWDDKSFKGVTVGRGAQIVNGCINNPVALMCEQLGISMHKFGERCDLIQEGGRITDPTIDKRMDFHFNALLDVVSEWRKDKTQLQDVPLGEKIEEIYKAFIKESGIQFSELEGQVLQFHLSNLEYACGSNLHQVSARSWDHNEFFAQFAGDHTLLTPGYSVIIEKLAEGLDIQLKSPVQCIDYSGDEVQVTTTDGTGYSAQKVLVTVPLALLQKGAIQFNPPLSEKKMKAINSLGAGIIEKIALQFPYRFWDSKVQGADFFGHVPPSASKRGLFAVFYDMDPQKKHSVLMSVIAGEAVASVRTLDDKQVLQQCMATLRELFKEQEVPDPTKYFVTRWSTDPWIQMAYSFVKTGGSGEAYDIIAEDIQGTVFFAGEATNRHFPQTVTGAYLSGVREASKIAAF
T4 sequence (O75976 32-1380): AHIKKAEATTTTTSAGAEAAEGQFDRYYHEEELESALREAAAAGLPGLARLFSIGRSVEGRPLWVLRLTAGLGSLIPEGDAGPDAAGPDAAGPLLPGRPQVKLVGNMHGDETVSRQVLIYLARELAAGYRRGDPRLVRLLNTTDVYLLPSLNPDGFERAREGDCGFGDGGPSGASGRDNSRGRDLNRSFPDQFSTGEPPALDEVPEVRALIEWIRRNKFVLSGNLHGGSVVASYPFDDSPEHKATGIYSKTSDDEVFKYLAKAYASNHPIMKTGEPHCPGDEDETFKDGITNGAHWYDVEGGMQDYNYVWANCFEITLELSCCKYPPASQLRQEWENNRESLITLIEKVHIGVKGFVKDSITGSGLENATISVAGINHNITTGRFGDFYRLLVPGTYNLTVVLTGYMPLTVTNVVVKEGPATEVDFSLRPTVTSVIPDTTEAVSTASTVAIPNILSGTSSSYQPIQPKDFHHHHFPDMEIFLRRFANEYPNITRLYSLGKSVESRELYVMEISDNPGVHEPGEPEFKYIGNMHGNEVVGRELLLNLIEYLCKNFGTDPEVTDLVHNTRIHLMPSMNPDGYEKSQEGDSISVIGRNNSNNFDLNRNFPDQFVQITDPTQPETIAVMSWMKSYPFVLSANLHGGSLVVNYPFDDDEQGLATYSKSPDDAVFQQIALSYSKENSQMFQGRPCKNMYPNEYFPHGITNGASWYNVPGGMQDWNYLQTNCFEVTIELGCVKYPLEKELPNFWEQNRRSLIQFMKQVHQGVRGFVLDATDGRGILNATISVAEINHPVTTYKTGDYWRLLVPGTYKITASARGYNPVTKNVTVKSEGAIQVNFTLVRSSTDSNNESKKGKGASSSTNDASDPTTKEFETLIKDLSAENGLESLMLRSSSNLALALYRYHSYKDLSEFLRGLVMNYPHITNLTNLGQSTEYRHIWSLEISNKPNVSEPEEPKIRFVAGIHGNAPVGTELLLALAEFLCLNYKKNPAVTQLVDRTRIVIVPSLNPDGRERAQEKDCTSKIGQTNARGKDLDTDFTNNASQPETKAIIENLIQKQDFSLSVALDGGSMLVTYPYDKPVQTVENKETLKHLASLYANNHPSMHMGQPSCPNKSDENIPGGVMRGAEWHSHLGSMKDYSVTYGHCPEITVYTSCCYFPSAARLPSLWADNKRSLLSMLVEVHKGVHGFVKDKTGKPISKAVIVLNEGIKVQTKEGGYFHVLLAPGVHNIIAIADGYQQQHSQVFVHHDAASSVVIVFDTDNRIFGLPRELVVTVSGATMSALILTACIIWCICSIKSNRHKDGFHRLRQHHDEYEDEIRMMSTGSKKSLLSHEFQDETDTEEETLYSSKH
T10 sequence (O00469 26-737): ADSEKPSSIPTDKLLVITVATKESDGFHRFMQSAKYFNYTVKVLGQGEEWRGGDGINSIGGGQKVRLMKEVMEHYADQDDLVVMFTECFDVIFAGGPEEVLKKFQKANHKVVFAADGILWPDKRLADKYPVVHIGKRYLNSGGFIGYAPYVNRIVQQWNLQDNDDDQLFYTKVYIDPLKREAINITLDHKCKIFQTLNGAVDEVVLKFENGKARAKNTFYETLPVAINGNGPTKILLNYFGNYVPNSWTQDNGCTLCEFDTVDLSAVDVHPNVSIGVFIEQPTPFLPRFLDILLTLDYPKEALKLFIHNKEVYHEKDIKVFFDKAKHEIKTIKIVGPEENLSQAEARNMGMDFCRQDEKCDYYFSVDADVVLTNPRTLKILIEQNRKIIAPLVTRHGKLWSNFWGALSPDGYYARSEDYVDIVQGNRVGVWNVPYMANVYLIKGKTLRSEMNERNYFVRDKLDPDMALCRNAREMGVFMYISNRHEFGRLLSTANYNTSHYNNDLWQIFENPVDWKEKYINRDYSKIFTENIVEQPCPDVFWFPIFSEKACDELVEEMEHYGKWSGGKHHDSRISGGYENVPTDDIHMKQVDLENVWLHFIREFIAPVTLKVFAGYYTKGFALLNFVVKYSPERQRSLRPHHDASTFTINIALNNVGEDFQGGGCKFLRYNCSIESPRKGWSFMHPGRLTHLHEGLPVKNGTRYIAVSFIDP
T11 sequence (Q92626 27-1479): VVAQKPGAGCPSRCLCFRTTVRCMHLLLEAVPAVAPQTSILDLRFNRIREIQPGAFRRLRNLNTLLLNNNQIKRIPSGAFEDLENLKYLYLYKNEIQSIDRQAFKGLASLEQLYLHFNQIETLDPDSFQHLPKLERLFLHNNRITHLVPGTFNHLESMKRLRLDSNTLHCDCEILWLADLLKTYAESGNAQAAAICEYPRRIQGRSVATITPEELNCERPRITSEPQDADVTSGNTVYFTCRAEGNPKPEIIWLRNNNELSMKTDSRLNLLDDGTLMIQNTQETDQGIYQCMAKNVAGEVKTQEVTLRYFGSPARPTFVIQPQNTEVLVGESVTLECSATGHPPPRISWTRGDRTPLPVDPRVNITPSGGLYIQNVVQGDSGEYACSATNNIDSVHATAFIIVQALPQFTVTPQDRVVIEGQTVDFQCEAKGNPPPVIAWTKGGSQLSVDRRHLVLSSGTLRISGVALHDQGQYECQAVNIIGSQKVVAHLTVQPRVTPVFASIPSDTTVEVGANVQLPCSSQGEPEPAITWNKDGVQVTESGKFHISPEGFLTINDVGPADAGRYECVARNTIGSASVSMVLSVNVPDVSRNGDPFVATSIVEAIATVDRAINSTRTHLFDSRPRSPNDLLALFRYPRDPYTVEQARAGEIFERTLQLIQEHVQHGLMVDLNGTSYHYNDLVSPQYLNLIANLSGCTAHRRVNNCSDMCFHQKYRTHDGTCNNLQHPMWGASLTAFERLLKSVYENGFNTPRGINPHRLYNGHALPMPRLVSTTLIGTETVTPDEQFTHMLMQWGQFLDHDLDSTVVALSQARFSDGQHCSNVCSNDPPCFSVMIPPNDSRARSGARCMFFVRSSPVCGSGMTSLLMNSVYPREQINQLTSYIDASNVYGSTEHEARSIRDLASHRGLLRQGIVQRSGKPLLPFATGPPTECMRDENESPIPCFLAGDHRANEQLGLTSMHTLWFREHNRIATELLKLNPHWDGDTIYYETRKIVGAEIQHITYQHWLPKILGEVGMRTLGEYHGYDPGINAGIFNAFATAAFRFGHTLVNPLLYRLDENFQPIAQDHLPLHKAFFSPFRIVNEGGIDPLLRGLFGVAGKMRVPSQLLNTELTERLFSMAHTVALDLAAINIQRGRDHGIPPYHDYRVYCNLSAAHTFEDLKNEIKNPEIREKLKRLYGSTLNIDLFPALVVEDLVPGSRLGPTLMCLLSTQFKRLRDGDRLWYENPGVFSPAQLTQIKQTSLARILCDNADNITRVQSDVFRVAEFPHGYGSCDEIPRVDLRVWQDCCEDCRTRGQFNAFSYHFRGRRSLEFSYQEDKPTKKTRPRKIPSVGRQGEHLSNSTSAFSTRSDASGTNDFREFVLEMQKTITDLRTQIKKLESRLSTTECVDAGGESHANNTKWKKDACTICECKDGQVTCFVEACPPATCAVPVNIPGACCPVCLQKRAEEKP
T9 sequence (Q5SRE7 whole entry): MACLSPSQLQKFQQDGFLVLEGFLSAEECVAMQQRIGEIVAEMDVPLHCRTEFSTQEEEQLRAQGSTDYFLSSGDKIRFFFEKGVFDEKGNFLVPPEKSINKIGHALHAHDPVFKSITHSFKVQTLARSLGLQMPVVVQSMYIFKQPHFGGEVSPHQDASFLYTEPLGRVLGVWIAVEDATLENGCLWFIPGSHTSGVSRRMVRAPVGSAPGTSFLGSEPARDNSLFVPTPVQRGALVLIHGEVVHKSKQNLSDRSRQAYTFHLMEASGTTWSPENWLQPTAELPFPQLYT
T14 sequence (O15382 28-392): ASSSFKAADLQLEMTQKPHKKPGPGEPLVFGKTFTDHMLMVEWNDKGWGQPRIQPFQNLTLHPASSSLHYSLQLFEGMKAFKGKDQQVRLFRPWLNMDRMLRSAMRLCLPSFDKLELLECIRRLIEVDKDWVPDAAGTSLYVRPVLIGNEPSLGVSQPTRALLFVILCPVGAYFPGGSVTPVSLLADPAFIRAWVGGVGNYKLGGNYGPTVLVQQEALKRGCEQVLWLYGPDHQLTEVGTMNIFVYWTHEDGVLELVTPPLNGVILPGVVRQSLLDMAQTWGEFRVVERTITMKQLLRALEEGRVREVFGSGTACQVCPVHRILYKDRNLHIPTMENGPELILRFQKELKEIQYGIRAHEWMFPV

For C#CCCNC(=O)c1ccc(NN)cc1.Cl [probe 2, N-(but-3-yn-1-yl)-4-hydrazinylbenzamide hydrochloride], the enrichment ratioavg ([1]; probe 2 1 mM 0.5 h vs probe 4) was 20, the competition ratioavg ([1]; probe 2 vs probe 2+10x probe 4) was 1 and the enrichment ratioavg ([2]; probe 2 1 mM 0.5 h vs probe 4) was 20. The competition ratioavg ([2]; probe 2 vs probe 2+10x probe 4) was 2, the enrichment ratioavg ([3]; probe 2 1 mM 0.5 h vs probe 4) was 18 and the competition ratioavg ([3]; probe 2 vs probe 2+10x probe 4) was 3. It also gave an enrichment ratioavg ([4]; probe 2 1 mM 0.5 h vs probe 4) of 20, a competition ratioavg ([4]; probe 2 vs probe 2+10x probe 4) of 15 and an enrichment ratioavg ([5]; probe 2 1 mM 0.5 h vs probe 4) of 20. The competition ratioavg ([5]; probe 2 vs probe 2+10x probe 4) was 4, the enrichment ratioavg ([6]; probe 2 1 mM 0.5 h vs probe 4) was 20 and the competition ratioavg ([6]; probe 2 vs probe 2+10x probe 4) was 2. It also gave an enrichment ratioavg ([7]; probe 2 1 mM 0.5 h vs probe 4) of 17, a competition ratioavg ([7]; probe 2 vs probe 2+10x probe 4) of 2 and an enrichment ratioavg (NEU1 Sialidase1 (Q99519); probe 2 1 mM 0.5 h vs probe 4) of 5. For the same compound, the competition ratioavg (NEU1 Sialidase1 (Q99519); probe 2 vs probe 2+10x probe 4) was 3, the enrichment ratioavg ([8]; probe 2 1 mM 0.5 h vs probe 4) was 14 and the competition ratioavg ([8]; probe 2 vs probe 2+10x probe 4) was 5. For the same compound, the enrichment ratioavg ([9]; probe 2 1 mM 0.5 h vs probe 4) was 6, the competition ratioavg ([9]; probe 2 vs probe 2+10x probe 4) was 2 and the enrichment ratioavg ([10]; probe 2 1 mM 0.5 h vs probe 4) was 20. For the same compound, the competition ratioavg ([10]; probe 2 vs probe 2+10x probe 4) was 5, the enrichment ratioavg ([11]; probe 2 1 mM 0.5 h vs probe 4) was 13 and the competition ratioavg ([11]; probe 2 vs probe 2+10x probe 4) was 1. The enrichment ratioavg ([12]; probe 2 1 mM 0.5 h vs probe 4) was 20, the competition ratioavg ([12]; probe 2 vs probe 2+10x probe 4) was 3 and the enrichment ratioavg ([13]; probe 2 1 mM 0.5 h vs probe 4) was 15. The competition ratioavg ([13]; probe 2 vs probe 2+10x probe 4) was 2.
